Results as given in ChEMBL document CHEMBL5550189, “Discovery of GS-7682, a Novel 4'-Cyano-Modified C-Nucleoside Prodrug with Broad Activity against Pneumo- and Picornaviruses and Efficacy in RSV-Infected African Green Monkeys” (J Med Chem, 2024).

Key:
enterovirus D68 = experiment: Anti-viral activity against EV-D68 (18952) infected in human RD cells by MTS assay; format: functional, organism-based; details: Enterovirus D, 18952, RD
[1] = Cytotoxicity against MDCK cells by MTS assay; format: toxicity, cell-based, Canis lupus familiaris; details: dog
[2] = test system: Respiratory syncytial virus; experiment: Antiviral activity against RSV A2 infected in D-HBE-COPD cells assessed as inhibition of intracellular virus replication; format: functional, organism-based; details: human respiratory syncytial virus
[3] = Prodrug conversion in Normal human bronchial epithelial cells assessed as ((2R,3S,4R,5S)-5-(4-aminopyrrolo[2,1-f][1,2,4]triazin-7-yl)-2-cyano-3,4-dihydroxytetrahydrofuran-2-yl)methyl tetrahydrogen triphosphate formation measured per million cells at 1 uM measured after 48 hrs by LC-MS/MS analysis; format: ADME, cell-based; details: epithelial cell
[4] = Prodrug conversion in Normal human bronchial epithelial cells assessed as ((2R,3S,4R,5S)-5-(4-aminopyrrolo[2,1-f][1,2,4]triazin-7-yl)-2-cyano-3,4-dihydroxytetrahydrofuran-2-yl)methyl tetrahydrogen triphosphate formation measured per million cells at 10 uM incubated for 2 hrs by LC-MS/MS analysis; format: ADME, cell-based; details: epithelial cell
Enterovirus A71 = experiment: Anti-viral activity against EV-71 (H) infected in human RD cells by MTS assay; format: functional, organism-based; details: Enterovirus A
[5] = Drug metabolism in Cynomolgous monkey assessed as Cmax of (2R,3S,4R,5S)-5-(4-aminopyrrolo[2,1-f][1,2,4]triazin-7-yl)-3,4-dihydroxy-2-(hydroxymethyl)tetrahydrofuran-2-carbonitrile metabolite at 5 mg/kg, iv measured after 30 mins by LC-MS/MS analysis; format: ADME, organism-based, Macaca fascicularis; details: cynomolgus monkey, in vivo, 0.5 h
[6] = Half life in Cynomolgous monkey at lung-deposited dose of 4 mg/kg, IT measured after 24 hrs by LC-MS/MS analysis; format: ADME, organism-based, Macaca fascicularis; details: cynomolgus monkey, in vivo
[7] = test system: Respiratory syncytial virus; experiment: Antiviral activity against RSV A2 infected in Normal human bronchial epithelial cells incubated for 3 days by ONE-Glo luciferase assay; format: functional, organism-based; details: A2, Epithelial cell, 72 h
[8] = Prodrug conversion in human H1-HeLa cells assessed as ((2R,3S,4R,5S)-5-(4-aminopyrrolo[2,1-f][1,2,4]triazin-7-yl)-2-cyano-3,4-dihydroxytetrahydrofuran-2-yl)methyl tetrahydrogen triphosphate formation measured per million cells at 0.2 uM measured after 48 hrs by LC-MS/MS analysis; format: ADME, cell-based
[9] = Drug concentration in lung of African green monkey at lung-deposited dose of 5.9 mg/kg, IT measured after 24 hrs by LC-MS/MS analysis; format: ADME, organism-based; details: chlorocebus aethiops, in vivo, other
[10] = Cmax in Cynomolgous monkey at lung-deposited dose of 4 mg/kg, IT measured after 24 hrs by LC-MS/MS analysis; format: ADME, organism-based, Macaca fascicularis; details: cynomolgus monkey, in vivo
[11] = Cmax in Cynomolgous monkey at 5 mg/kg, iv measured after 30 mins by LC-MS/MS analysis; format: ADME, organism-based, Macaca fascicularis; details: cynomolgus monkey, in vivo
[12] = test system: Respiratory syncytial virus; experiment: Antiviral activity against RSV A2 infected in H1-HeLa cells assessed as inhibition of intracellular virus replication; format: functional, organism-based; details: human respiratory syncytial virus
[13] = Drug metabolism in Cynomolgous monkey assessed as Cmax of (2R,3S,4R,5S)-5-(4-aminopyrrolo[2,1-f][1,2,4]triazin-7-yl)-3,4-dihydroxy-2-(hydroxymethyl)tetrahydrofuran-2-carbonitrile metabolite at lung-deposited dose of 4 mg/kg, IT measured after 24 hrs by LC-MS/MS analysis; format: ADME, organism-based, Macaca fascicularis; details: cynomolgus monkey, in vivo, other
[14] = Drug metabolism in Cynomolgous monkey assessed as half life of (2R,3S,4R,5S)-5-(4-aminopyrrolo[2,1-f][1,2,4]triazin-7-yl)-3,4-dihydroxy-2-(hydroxymethyl)tetrahydrofuran-2-carbonitrile metabolite at lung-deposited dose of 4 mg/kg, IT measured after 24 hrs by LC-MS/MS analysis; format: ADME, organism-based, Macaca fascicularis; details: cynomolgus monkey, in vivo, other
[15] = Prodrug conversion in D-HBE-COPD cells assessed as ((2R,3S,4R,5S)-5-(4-aminopyrrolo[2,1-f][1,2,4]triazin-7-yl)-2-cyano-3,4-dihydroxytetrahydrofuran-2-yl)methyl tetrahydrogen triphosphate formation measured per million cells at 1 uM measured after 48 hrs by LC-MS/MS analysis; format: ADME, cell-based; details: human
[16] = Cytotoxicity against human RD cells by MTS assay; format: toxicity, cell-based
[17] = Selectivity index, ratio of CC50 for human HEp-2 cells to EC50 for RSV A2 infected in human HEp-2 cells; format: toxicity, cell-based; details: read-out: Ratio CC50/EC50
[18] = Cytotoxicity against human A549 cells expressing hACE2 incubated for 28 hrs by Cell Titer Glo assay; format: toxicity, cell-based
[19] = Drug metabolism in African green monkey assessed as AUC (0 to 24 hrs) of (2R,3S,4R,5S)-5-(4-aminopyrrolo[2,1-f][1,2,4]triazin-7-yl)-3,4-dihydroxy-2-(hydroxymethyl)tetrahydrofuran-2-carbonitrile metabolite at lung-deposited dose of 5.9 mg/kg, IT measured after 24 hrs by LC-MS/MS analysis; format: ADME, organism-based; details: chlorocebus aethiops, in vivo, other
SARS-CoV-2 = experiment: Anti-viral activity against SARS-CoV-2 infected in human A549 cells expressing hACE2 by firefly reporter assay; format: functional, organism-based; details: Severe acute respiratory syndrome coronavirus 2, A549
[20] = test system: Respiratory syncytial virus; experiment: Antiviral activity against RSV A2 infected in D-HBE-As cells assessed as inhibition of intracellular virus replication; format: functional, organism-based; details: human respiratory syncytial virus
Human metapneumovirus = experiment: Anti-viral activity against hMPV CAN99-81 (A1 genotype) infected in rhesus monkey LLC-MK2 cells incubated for 90 mins; format: functional, organism-based; details: LLC-MK2, 1.5 h
[21] = Cmax in African green monkey at lung-deposited dose of 5.9 mg/kg, IT measured after 24 hrs by LC-MS/MS analysis; format: ADME, organism-based; details: chlorocebus aethiops, in vivo
[22] = test system: Respiratory syncytial virus; experiment: Antiviral activity against Fluc-fused RSV A2 infected in D-HBE-COPD cells incubated for 3 days by ONE Glo luciferase assay; format: functional, organism-based; details: human respiratory syncytial virus, 72 h
[23] = AUC (0 to 24 hrs) in African green monkey at lung-deposited dose of 5.9 mg/kg, IT measured after 24 hrs by LC-MS/MS analysis; format: ADME, organism-based; details: chlorocebus aethiops, in vivo
[24] = test system: Respiratory syncytial virus; experiment: Antiviral activity against RSV A2 infected in human HEp-2 cells incubated for 4 days by Cell Titer Glo assay; format: functional, organism-based; details: A2, HEp-2, 96 h
[25] = test system: Respiratory syncytial virus; experiment: Antiviral activity against RSV infected in African green monkey assessed as reduction in viral replication in BAL at lung-deposited dose of 1.6 to 7.6 mg/kg, IT qd for 6 days measured for 15 days by RT-qPCR analysis relative to control; format: functional; parameters: scale not given: the % may be the effect or the level left; details: dose 1.6-7.6 mg/kg, time 15 day, at 1.6 to 7.6 mg/kg
[26] = test system: Respiratory syncytial virus; experiment: Antiviral activity against RSV A2 infected in human airway epithelium transwell culture assessed as decrease in viral RNA level by measuring log10 reduction in median viral load at 0.01 uM pretreated at apical side for 3 hrs followed by compound washout and subsequent viral infection at apical side for 3 hrs followed by removal of virus and recurrent addition of compound on day 1 and 2 at basolateral side measured on day 3 by RT-qPCR analysis; format: functional; details: time 75 hrs
Influenza A virus = experiment: Anti-viral activity against Influenza A (H1N1) infected in MDCK cells by MTS assay; format: functional, organism-based; details: H

COC(=O)[C@H](C)N[P@](=O)(OC[C@@]1(C#N)O[C@@H](c2ccc3c(N)ncnn23)[C@H](OC(=O)C(C)C)[C@@H]1OC(=O)C(C)C)Oc1ccccc1
EC50 (enterovirus D68): 90 nM | CC50 [1]: > 2000 nM | IC50 [2]: < 85 nM | Drug metabolism [3]: 88.8 pM | Drug metabolism [4]: 916 pM | EC50 (Enterovirus A71): 83 nM | Cmax [5]: 961 nM | half-life [6]: 13 h | EC50 [7]: 15 nM | amount per cells [8]: 0.84 pmol/10^6 cells | Drug uptake [9]: 24.6 nmol | Cmax [10]: 620 nM | Cmax [11]: 1990 nM | IC50 [12]: 84 nM | Cmax [13]: 140 nM | t1/2 [14]: 38.8 h | Drug metabolism [15]: 85 pM | CC50 [16]: > 2000 nM | selectivity ratio [17]: 500 | CC50 at 28 h [18]: 21100 nM | AUC [19]: 3.39 µM·h | EC50 (SARS-CoV-2): 4750 nM | IC50 [20]: 97 nM | EC50 (Human metapneumovirus): 210 nM | Cmax [21]: 610 nM | EC50 [22]: < 7 nM | AUC(0-t) at 24 h [23]: 1.74 µM·h | EC50 [24]: 46 nM | Activity [25]: >99.99% | Activity [26]: 0.2 log10/ml | EC50 (Influenza A virus): > 2000 nM
